Reference: patent US12527776B2, “Treatment of ciliopathies using inhibitors of glucosylceramide synthase (GCS)” (GENZYME CORPORATION, priority 2019, dated 2026)

Experiments:
[1] = tested on: Bbs2−/− mouse model of BBS; assay: GL1 analysis in tissues of Bbs2−/− mice; assay type: in vivo; conditions: 0.033% w/w in feed from 1 to 6 months of age
Description: (§1) A Bbs2^−/− mouse model has been described by Nishimura D Y et al. (Proc Natl Acad Sci, 101:16588-16593 (2004)) with exons 5-14 of Bbs2 replaced with a neomycin cassette. Mice were backcrossed into 129/SvJ background. Treated Bbs2^−/− mice were fed ad libitum with 0.033% w/w of Compound 1 incorporated in feed from the age of 1 month to 6 months. Bbs2^−/− and Wt control animals were fed regular 5053 chow (LabDiet). To establish metabolic disease, Bbs2^−/− mice were left untreated until four-months of age, and then treated with Compound 1 incorporated into feed for the fifth and sixth months.
Quantitative analysis of glycosylceramide was performed by liquid chromatography and tandem mass spectrometry (LC/MS/MS). Briefly, 100 mg of tissue were homogenized in 1 ml of water with Mini Beadbeater (BioSpec Products, Inc., Bartlesville, OK). 10 μl of homogenate was extracted with 1 ml of 90% of 96:2:1:1 acetonitrile/methanol/acetic acid/water (v/v/v/v) (mobile phase A) and 10% of 98:1:1 methanol/acetic acid/water (v/v/v) (mobile phase B); both contained 5 mM ammonium acetate. The samples were placed on a VX-2500 tube vortexer (VWR International, LLC, MA) for 5 min and then centrifuged for 4 min at 8,400 rpm (Beckman Coulter, Inc., IN). […] Quantitation was performed using GL1 standard (Glucocerebrosides, Gaucher's spleen; Matreya, LLC, Pleasant Gap, PA).

Bbs2−/− mice [2] = assay: Metabolic parameters in Bbs2−/− mice; assay type: in vivo, mouse
Description: as §1
Body composition was analyzed using an EchoMRI™. Measurements of the fat mass and of lean mass were recorded and percent of body fat was calculated. Body composition was calculated using the following formula: fat mass/(fat mass+lean mass).
Food weights were recorded from the food hopper and bedding. Average food consumption per animal per day was estimated using the following formula: [(food weight at start of period−(food weight at end of period in hopper[…])]/#animals in the cage/#days of observation.
Blood was collected during necropsy and incubated for 15 minutes at room temperature to allow clot formation. Clot was removed by centrifugation at 15,000 rpm for 5 minutes to collect serum. Leptin ELISA kit (R&D Systems) was used to measure leptin concentrations according to the manufacturer's instructions.
Total RNA was isolated from homogenized adipose tissue dissected from 6-month old mice using TRizol and chloroform extraction followed by the RNAeasy Mini Kit Purification (Qiagen), quantified using the NanoDrop 2300 system, and was reverse transcribed using High Capacity cDNA Reverse Transcription Kit (Applied Biosystems). Primers for Fas and Srebf1 were purchased from Applied Biosystems. Quantitative PCR was performed in duplicate for each sample on an Applied Biosystems RT-PCR machine using Taqman Universal Master Mix (Thermo Fisher) according to the manufacturer's instructions. Relative amounts of mRNA were determined using the Comparative CT Method for quantification and were normalized to GAPDH mRNA levels.
Automated digital image analysis was performed on whole adipose tissues using Visiopharm Image Analysis software (DK-2970 Hoersholm, Denmark, version 6.9.1). Two custom-written applications were created and run consecutively for each digital image. The first application detected adipose tissue using threshold classification and outlined the area as a Region of Interest (ROI). The second application used threshold to classify the tissue inside the ROI into three categories: Cytoplasm (cytoplasmic membrane), Adipose (Adipocyte), and Other (unwanted artifacts, large vessels, other tissue). Post processing steps included enclosing adipose with cytoplasm and selecting adequate adipose cells for counting by removing any adipose with a form factor less than 0.5.
Paraffin-embedded samples of brain tissue from Wt and Bbs2^−/− mice were cut and 4 micrometer sections were boiled in Antigen Retrieval solution (DAKO) in a pressure cooker to unmask antigens. Sections were blocked for 1 hour with 3% BSA followed by incubation with primary antibodies to adenylate cyclase III (Santa Cruz Biotechnology) diluted in 3% BSA overnight at 4° C. Alexa Fluor 488 secondary antibody (Invitrogen) was used at the dilution 1:1000. Images were acquired on a Leica DM5500B microscope fitted with ×40 and ×60 objectives using Leica Application Suite Advance Fluorescence software (Leica Microsystems).

Bbs2−/− mice [3] = assay: Liver abnormalities in Bbs2−/− mice (liver weight, ALT, triglycerides); assay type: in vivo, mouse; conditions: feed from 1 to 6 months of age
Description: as §1
Triglyceride and ALT levels were measured using a VetACE™ analyzer (Alfa Wasserman, West Coldwell, NJ).

[4] = tested on: human preadipocytes SQ cells with BBS1, BBS2 or BBS10 knocked-down; assay: In vitro adipocyte differentiation assay; assay type: cell-based; conditions: 1.25-10 μM, 10 days differentiation
Protocol: In Vitro Adipocyte Differentiation Assay
In order to examine the effect of Compound 1 on other mutations, we developed an in vitro differentiation assay in human preadipocyte cells. The BBS genes BBS1, BBS2, or BBS10 were knocked-down in cells using siRNA. For this, human preadipocytes SQ cells (Lonza) were plated in PGM-2 Preadipocyte Growth Medium-2 BulletKit, (Lonza) at 30,000 cells/cm^2 density and grown at 37° C. overnight. On the next day, cells were transfected with BBS1, BBS2 or BBS10 specific siRNA in OptiMem (Invitrogen) in the presence of Lipofectamine 2000 (Invitrogen) and differentiated in RDM-2 medium (Lonza) for 10 days with or without Compound 1 at concentrations of […], 5.0 and 10 μM (stock of Compound 1 was prepared in 100% ethanol and diluted with RDM-2 medium to final concentrations before adding to cells). A mixture of nonspecific siRNA (scrambled) was used as a negative control. Media was harvested for leptin analysis with Quantikine ELISA kit (RnD Systems, Inc.) at days 0, 5, 7 and 10 of adipocytes differentiation. Photomicroscopy (Axiovert 25, Zeiss with LASv4.2, Leica) was used to quantify lipid accumulation, which is evident by the size and quantity of lipid vacuoles in the cells.

[5] = 0.033% w/w in feed from 1 to 6 months of age
[6] = established disease, 0.033% w/w in feed starting at 4 months of age, after one month
[7] = white adipose tissue, feed from 1 to 6 months of age

**Q.** Which “levels of GL1 in the brain, kidney, liver and serum” value [1] does the source give for `CC(C)(NC(=O)OC1CN2CCC1CC2)c1cccc(-c2ccc(F)cc2)c1` (centres unmarked) [Compound 1, 1-azabicyclo[2.2.2]oct-3-yl [2-(4′-fluorobiphenyl-3-yl)propan-2-yl]carbamate] here?
**A.** The value was “reduction”.

**Q.** What about the body fat (Bbs2−/− mice [2]; [5]) of the same molecule?
**A.** The body fat was “significant decrease”.

**Q.** What about the body weight (Bbs2−/− mice [2]; [5]) of the same molecule?
**A.** Its body weight is “significant decrease”.

**Q.** What about the food consumption (Bbs2−/− mice [2]; [5]) of the same molecule?
**A.** The food consumption was “significant decrease”.

**Q.** What about the serum leptin (Bbs2−/− mice [2]; [5]) of the same molecule?
**A.** The serum leptin was “reduced to wild type levels”.

**Q.** And the “cilia in the hypothalamus” value (Bbs2−/− mice [2]; Compound in feed)?
**A.** Its value is “preserved the hypothalamic cilia”.

**Q.** And the body fat (Bbs2−/− mice [2]; [6])?
**A.** The body fat was “decreased”.

**Q.** And the body weight (Bbs2−/− mice [2]; [6])?
**A.** Its body weight is “decreased”.

**Q.** What about the serum leptin (Bbs2−/− mice [2]; [6]) of the same molecule?
**A.** Its serum leptin is “decreased”.

**Q.** What about the adipocyte size (Bbs2−/− mice [2]; established disease, after the two-month treatment) of the same molecule?
**A.** The adipocyte size was “decrease of adipocyte size”.

**Q.** And the adipocyte size (Bbs2−/− mice [2]; [7])?
**A.** Its adipocyte size is “reduction of adipocyte size”.

**Q.** And the “expression of pro-adipogenic gene Srebf1” value (Bbs2−/− mice [2]; [7])?
**A.** The value was “corrected upon treatment to the levels observed in Wt control”.

**Q.** What about the liver weight (Bbs2−/− mice [3]) of the same molecule?
**A.** The liver weight was “normalized”.

**Q.** What about the “serum ALT” value (Bbs2−/− mice [3]) of the same molecule?
**A.** Its value is “normalized”.

**Q.** And the serum triglycerides (Bbs2−/− mice [3])?
**A.** Its serum triglycerides is “normalized”.

**Q.** And the leptin secretion [4]?
**A.** The leptin secretion was “reduction”.

**Q.** What about the lipid accumulation [4] of the same molecule?
**A.** The lipid accumulation was “reduction of lipid accumulation”.
